Test results as given in patent US20120322060A1, “DIAGNOSIS AND MONITORING TREATMENT OF PSYCHIATRIC DISEASES WITH SPADIN AND RELATED METHODS” (CENTRE NATIONAL DE LE RECHERCHE SCIENTIFIQUE - CNRS -, priority 2011, published 2012).
“Also recorded” adds a separate entry of the source. No end group written: not given here.

Legend:
mice [1] = test: Staircase test; assay type: in vivo, mouse; settings: spadin i.p. 10^-5 M, diazepam i.p. 0.5 mg/kg
Procedure: The apparatus comprised an enclosed staircase consisted of five identical steps (2.5 cm in height×11 cm in width×7.5 cm in length), each made of black plastic. The height of the walls was constant (12.5 cm above the stairs) along the entire length of the staircase. Each mouse was placed individually on the floor of the staircase with its back to the staircase. A step was considered climbed only if the mouse placed all four paws on it. Rearing was recorded when the mouse rose on its hind legs either on the step or against the wall. The number of steps ascended and the number of rearings made in a 3-min period were recorded. Results were expressed as ratio of rearing/step numbers.

[2] = system: C13NJ microglial cell line; test: C13NJ wound-healing assay (NT-induced cell migration); assay type: cell-based; settings: 10 nM NT in the presence of 1 μM spadin
Procedure: A cell-free zone was created within a semi-confluent monolayer with a pipette tip. We analyzed by time-lapse microscopy how cells repopulated the cell-free zone. The 100% of migrating cells was calculated by stimulation of cell migration with 10% of Fetal Calf Serum (FCS).
A cell-free zone was created within a semi-confluent monolayer of microglial culture by scratching cells off with a pipette tip.

TREK-1 [3] = molecular target: T1, TREK-1 (Mus musculus, UniProt P97438); test: Association kinetics / internalization of 125I-spadin on COS-7 cells expressing TREK-1; assay type: cell-based; set-up: expressed in transfected cells; host or cells: COS-7 (DEAE-dextran transfection); settings: 37° C.
T1 sequence (P97438 1-426): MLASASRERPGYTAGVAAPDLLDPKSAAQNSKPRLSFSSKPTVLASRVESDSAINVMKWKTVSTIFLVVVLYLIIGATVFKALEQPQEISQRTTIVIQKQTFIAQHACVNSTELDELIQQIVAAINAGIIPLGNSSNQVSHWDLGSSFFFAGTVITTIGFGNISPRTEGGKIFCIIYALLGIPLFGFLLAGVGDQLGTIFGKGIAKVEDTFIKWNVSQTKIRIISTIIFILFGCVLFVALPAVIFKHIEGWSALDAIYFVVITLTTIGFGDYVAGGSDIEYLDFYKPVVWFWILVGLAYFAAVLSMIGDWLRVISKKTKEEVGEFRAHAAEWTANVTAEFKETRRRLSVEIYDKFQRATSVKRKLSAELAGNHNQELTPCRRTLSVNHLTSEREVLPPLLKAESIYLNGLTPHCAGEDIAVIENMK
Procedure: Cells, grown on 12 mm multiwell-dishes, were incubated with 0.2 nM ^125I-spadin for various times at 37° C. in an Earle's Tris-Hepes buffer (cell binding buffer). Incubations were terminated by washing cells twice with the binding buffer or with the same buffer containing 0.5 M NaCl, pH 4, for 2 min to remove non sequestrated radioactivity (acid-NaCl wash). Cells were harvested with 1 ml of 0.1 N NaOH and counted in a gamma-counter. Non specific binding was determined in the presence of 10 μM unlabeled spadin.

TREK-1 [4] = molecular target: T1, TREK-1; test: Whole-cell patch-clamp on TREK-1 transfected COS-7 cells; assay type: cell-based; set-up: GFP; expressed in transfected cells; host or cells: COS-7 (DEAE-dextran transfection); settings: after 90 sec of application
Procedure: All electrophysiological experiments were done on COS-7 cells seeded at a density of 20,000 cells/35-mm dish 24 h before transfection. Cells were transfected by the classical DEAE-dextran method with TREK-1-GFP plasmids (0.1 μg/μL). Cells were visualized 48-72 h after transfection using fluorescence.
The whole-cell patch-clamp technique was used to evaluate TREK-1 potassium channel current by using a RK 400 patch-clamp amplifier (Axon Instruments, U.S.A.), as previously described. Currents were lowpass filtered at 3 kHz, digitized at 10 kHz using a 12-bit analog-to-digital converter. […] The bath solution contained (in mM): 150 NaCl, 5 KCl, 3 MgCl2, 1 CaCl2, and 10 HEPES, adjusted to pH 7.4 with NaOH; the patch pipette solution contained (in mM): 155 KCl, 3 MgCl2, 5 EGTA, and 10 HEPES, adjusted to pH 7.2 with KOH. Cells were clamped at −80 mV and voltage changes were either applied by ramp (from −100 to 50 mV, 1 s in duration) or by step (from −100 to 40 mV, 1.5 s in duration). Cells were continuously superfused with a microperfusion system. The pipette capacitance was not subtracted from total membrane capacitance and there was no leak substraction. All experiments were done at room temperature (21° C. to 22° C.) and in the presence of a cocktail of potassium channel inhibitors (K^+ blockers: 10 mM tetraethyl ammonium (TEA), 3 mM 4-aminopyridine (4-AP), 50 nM charybdotoxin, 10 μM glibenclamide, 100 nM apamin).
Pclamp software was used to analyze currents recorded in the whole-cell mode measured at 0 mV. Results are expressed as means±SD. To obtain the IC50 value for dose-dependent inhibition, experimental data were fitted with a standard sigmoidal function.

mice [5] = test: Light/dark exploration; assay type: in vivo, mouse; settings: spadin i.p. 10^-5 M, diazepam i.p. 0.5 mg/kg
Procedure: The apparatus consisted of a cage (25×40×20 cm) divided into two compartments by a black partition containing a small opening that allows mouse to move from one compartment to the other. One compartment, comprising […] of the surface area, was made of white plastic and was brightly illuminated. The adjoining smaller compartment was black and dark. Mice were placed in the white compartment and allowed to move freely between the two chambers for 5 minutes. The number of transitions between the two compartments, time spent in the white chamber, and latency to the first transition were recorded. Mice tend to avoid the white compartment. Thus the measures of exploration in this area (time and entrances) were used as experimental indices of anxiety.

mice [6] = test: Novelty-Suppressed Feeding test (NSF); assay type: in vivo, mouse; settings: 4 days; spadin i.v. 10^-6 M, fluoxetine i.p. 3 mg/kg; 3 mg/kg
Procedure: NSF paradigm is a conflict test that elicits competing motivations: the drive to eat and the fear of venturing into the center of a bright arena. Latency to begin eating is used as an index of anxiety- and depression-like behavior. After 4 day treatment (saline or spadin, i.v.) and 24 hours food-deprivation, mice were presented with a food pellet placed in the center of a brightly plastic box (50×50×20 cm). Latency to begin eating was measured as previously described.

mice [7] = test: Corticosterone assay after tube restraint stress; assay type: in vivo, mouse; settings: 30 min after 10 min tube restraint; spadin i.p. 10^-5 M
Procedure: Mice were individually housed for at least 12 hours before blood sample collection. Serum samples, collected in the morning were obtained by retroorbital puncture before and 30 min after the end of a 10-min tube restraint. Levels of corticosterone were measured by radioimmunoassay using a commercially available kit (MP Biomedicals).

TREK-1 [8] = molecular target: T1, TREK-1; test: Whole-cell patch-clamp of native currents on β-TC3 cell line; assay type: cell-based; set-up: expressed in transfected cells; host or cells: COS-7 (DEAE-dextran transfection); settings: 1 μM spadin; read-out: inhibition of endogenous TREK-1
Procedure: Native currents elicited by these cells were recorded in the whole-cell configuration of the patch-clamp technique (as described for COS-7 cells) and in the presence of K^+ blockers.

APLPRWSGPIGVSWGLR [spadin]
rearing/step numbers ratio (mice [1]): had no effect | migrating cells, % of number migrating with 10% FCS [2]: 6.2±1.3% | time for cell-associated radioactivity to reach a plateau (TREK-1 [3]): ≤ 30 min | inhibition of current increase induced by 10 μM aa (TREK-1 [4]): inhibited the aa-induced increase | number of light/dark transitions (mice [5]): did not make more transitions | latency to feed versus saline (mice [6]): significant decrease in latency to feed; also recorded: significantly reduced the latency to feed | reduction of stress-induced increase in corticosterone levels versus saline (mice [7]): 79.5% | inhibition at 1 µM (TREK-1 [8]): 36%
